Columns and labels:
[1] = parameters: method as in PMID 23089600; details: 10 μM, pH 7.4; cited from earlier work
[2] = molecular target: T1, apoTf (Homo sapiens, UniProt P02787); assay: apoTf fluorescence quenching; format: binding; details: λEM = 330 nm
T1 construct: purchased Sigma-Aldrich T2036
Procedure: Fluorescence quenching is a convenient technique to study the binding of metal ions at the iron-binding sites of apoTf since it results in reduced fluorescence intensity of Tf. Batch samples containing 1 μM apoTf and various amounts of In(III) compounds were prepared. […] The partial (and not complete) quenching of apoTf can be explained by the presence of numerous Tyr (26) and Trp (8) residues in the protein among which only a few are affected by the binding of In(III) at the iron-binding sites. Upon addition of InQ3, the quenching curve is more stretched and aims to lower intensities (Fig. 4b). Interaction of the non-dissociated complex InQ3 with apoTf cannot be excluded, the latter proposed interaction is realized via intermolecular binding mode and more likely takes place on site(s) other than the iron-binding pockets (vide infra).
Fluorescence studies were implemented by a Fluoromax (Horiba Jobin Yvon) fluorometer in 1 cm quartz cells. Samples contained 1 μM HSA or (apo)Tf and various protein-to-metal complex (or InCl3) ratios (up to complex/HSA = 1:30) were used. […] Intrinsic fluorescence of complex InQ3 was also followed at λEX = 367 nm, and λEM = 450 – 650 nm. In this setup, the complex concentration was ca. 10 or 20 μM, and protein (HSA, (apo)Tf) concentration was varied between 0 and 130 μM, and residual fluorescence of the proteins were subtracted if it was necessary. […]

[3] = molecular target: T2, human serum albumin (HSA) (Homo sapiens, UniProt P02768); assay: HSA binding by membrane ultrafiltration-UV-vis; details: 2.5 equiv. protein
T2 construct: purchased Sigma-Aldrich A8763

[4] = Interaction of tris-ligand complexes with low molecular mass serum components (phosphate, citrate, oxalate), UV-vis; format: physicochemical; details: tenfold excess of the LMM ligands (phosphate, citrate, oxalate), pH 7.4
Text: As a first step, interaction of the tris-ligand In(III) complexes with various LMM blood serum components was investigated and compared to that of GaQ3 studied formerly in our research group. The LMM compounds are considered to be more mobile than the high molecular mass components (HMM) such as proteins, and generally their reaction is characterized by faster kinetics. The role of serum compounds might have importance on the distribution of the In(III) complexes since they may be responsible for (partial) displacement of the originally coordinated ligand and they can also form mixed-ligand complexes. The complexes of In(III) and Ga(III) formed with HQ (InQ3, GaQ3), deferiprone (InD3) and maltol (InM3) were prepared in an aqueous solution by mixing the respective ligand and the metal ion in 3:1 ratio. […] All the measurements in this work were performed at 25 °C as most of the stability constants used for the modeling calculations published in the literature were determined at this temperature. UV–vis spectra recorded for the tris-ligand complexes at 10 μM concentration (see Fig. S1a for InQ3) in this buffer show 94%, 90% and < 20% non-dissociated InQ3, InD3 and InM3, respectively, which corresponds well to the fractions obtained using the stability constants determined at 0.20 M KCl: 90% (InQ3), 86% (InD3) and 9% InM3 and 6% InM^2+. […]

T2 sequence (P02768 25-609): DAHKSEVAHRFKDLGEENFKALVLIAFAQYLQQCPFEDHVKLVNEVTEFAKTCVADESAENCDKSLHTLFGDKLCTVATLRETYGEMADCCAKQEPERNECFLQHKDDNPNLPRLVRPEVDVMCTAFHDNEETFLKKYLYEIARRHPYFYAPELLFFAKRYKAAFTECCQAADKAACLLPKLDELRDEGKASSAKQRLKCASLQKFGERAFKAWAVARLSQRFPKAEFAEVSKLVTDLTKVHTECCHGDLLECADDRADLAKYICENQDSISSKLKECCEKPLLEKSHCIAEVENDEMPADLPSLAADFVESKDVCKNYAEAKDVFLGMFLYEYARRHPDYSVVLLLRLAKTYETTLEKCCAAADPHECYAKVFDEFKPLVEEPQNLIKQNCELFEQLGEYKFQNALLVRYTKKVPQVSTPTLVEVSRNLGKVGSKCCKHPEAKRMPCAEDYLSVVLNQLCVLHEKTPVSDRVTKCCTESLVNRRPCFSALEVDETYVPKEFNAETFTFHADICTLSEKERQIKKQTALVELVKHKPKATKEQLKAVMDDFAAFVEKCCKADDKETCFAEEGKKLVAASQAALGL
T1 sequence (P02787 20-698): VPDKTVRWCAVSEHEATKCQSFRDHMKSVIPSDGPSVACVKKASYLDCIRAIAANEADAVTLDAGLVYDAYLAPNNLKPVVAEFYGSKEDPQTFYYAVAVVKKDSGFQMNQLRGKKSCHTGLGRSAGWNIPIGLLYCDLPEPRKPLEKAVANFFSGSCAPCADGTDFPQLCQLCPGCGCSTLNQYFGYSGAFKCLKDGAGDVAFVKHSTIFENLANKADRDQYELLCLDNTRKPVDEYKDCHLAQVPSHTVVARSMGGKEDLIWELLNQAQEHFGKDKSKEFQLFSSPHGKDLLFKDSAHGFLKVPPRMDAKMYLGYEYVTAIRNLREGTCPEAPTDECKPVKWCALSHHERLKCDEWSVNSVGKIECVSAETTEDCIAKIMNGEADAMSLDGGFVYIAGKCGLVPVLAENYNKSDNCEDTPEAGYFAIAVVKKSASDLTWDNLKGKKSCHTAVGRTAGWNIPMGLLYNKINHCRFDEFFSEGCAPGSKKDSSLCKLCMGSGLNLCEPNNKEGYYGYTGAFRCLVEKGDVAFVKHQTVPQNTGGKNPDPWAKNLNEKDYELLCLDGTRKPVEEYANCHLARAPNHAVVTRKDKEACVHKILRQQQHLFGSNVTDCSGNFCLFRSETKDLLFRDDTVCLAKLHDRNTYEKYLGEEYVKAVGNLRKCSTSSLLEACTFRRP

In the case of `[Ga+3].[O-]c1cccc2cccnc12.[O-]c1cccc2cccnc12.[O-]c1cccc2cccnc12` [GaQ3, Tris(8-Quinolinolato)gallium(III), reference compound], the “fraction of tris-ligand complex” value [1] is listed as 86%.
In the case of `Cc1c([O-])c(=O)ccn1C.Cc1c([O-])c(=O)ccn1C.Cc1c([O-])c(=O)ccn1C.[In+3]` [InD3], the “apoTf emission stabilized at % of the initial intensity” value ([2]; 1 μM apoTf, λEX = 280 nm, pH 7.40) is reported as “ca. 83%”, the “breakpoint of the quenching curve, complex-to-Tf ratio” value [2] is reported as “ca. 2” and the “In(III) ion bound to the protein (deferiprone liberation)” value [3] is reported as “ca. 7%”. The “complex bound to HSA” value [3] was “ca. 8%”.
With `[In+3].[O-]c1cccc2cccnc12.[O-]c1cccc2cccnc12.[O-]c1cccc2cccnc12` [InQ3, Tris(8-Quinolinolato)indium(III)] the complex remained [4] was “ca. 34%”.
